PubChem BioAssay AID2745 (NMMLSC, 2010)

Test system: S. cerevisiae LAP4-GFP reporter, flow cytometry fluorescence
Test: LAP4-GFP modulation potency in yeast, dose response, cell-based, MLPCN hits, flow cytometry (AID 2745);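 also: yeast exposed to compound for three hours at 30 degrees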

| SMILES | EC50 |
| --- | --- |
| O=[N+]([O-])c1ccc(O)c(/C=N/Nc2ccccn2)c1 | 12.5 µM |
| c1ccc(-c2cccc(-c3ccccn3)n2)nc1 | 3.9 µM |
| O=[N+]([O-])c1ccc(N=Nc2c(Cl)cc(O)cc2Cl)cc1 | 4.97 µM |
| Cc1cccc(C(=O)NC(=S)NNC(=O)Cc2ccccc2)c1 | 10.9 µM |
| N=C1S/C(=C\c2ccco2)C(=O)N1c1nccs1 | 4 µM |
| COc1ccc(/C=C/C(=O)NC(=S)NNC(=O)c2cnccn2)cc1 | 1.31 µM |
| Cc1cc(C(=O)COC(=O)c2ccc[nH]c2=O)c(C)n1-c1ccccc1F | 0.863 µM |
| O=C(NC(=S)NNC(=O)c1cnccn1)c1ccc(F)cc1 | 7.94 µM |
| CCCCCCCCn1sccc1=O | 0.912 µM |
| O=[N+]([O-])c1cc(S(=O)(=O)C(F)(F)F)ccc1Sc1nc2ccccc2s1 | 8.42 µM |
| O=C(Oc1ccnc2cc(Cl)ccc12)N1CCCCCC1 | 12.1 µM |
| Nc1ccccc1C#CC(=O)c1ccccc1 | 8.31 µM |
| O=c1oc2cc(Oc3c([N+](=O)[O-])cc(C(F)(F)F)cc3[N+](=O)[O-])ccc2c2c1CCCC2 | 3.04 µM |
| COc1cccc(N=Nc2ccc(O)c3ncccc23)c1 | 3.36 µM |
| CC(C)(C)C(=O)C(Cl)C(=O)Nc1ccccc1 (stereo not drawn) | 14.6 µM |
| Cc1ccsc1/C=N/Nc1ncc(Cl)cc1Cl | 6.19 µM |
| COc1ccccc1OCCCc1c(C)n[nH]c1C | 20.1 µM |
| C/C(=N/NC(=O)c1ccc(C(C)(C)C)cc1)c1ccccn1 | 32.7 µM |
| COc1cccc2sc(Nc3nc(-c4ccccn4)cs3)nc12 | 1.36 µM |
| O=C(Nc1nc(-c2ccccn2)cs1)C1COc2ccccc2O1 (stereo not drawn) | 3.9 µM |
| CC1(C)C[C@H]2C=C(C=O)[C@]3(C=O)C[C@]3(C)[C@H]2C1 | 0.865 µM |

| SMILES | EC50 |
| --- | --- |
| N/C(Cc1ccc(Cl)c(Cl)c1)=N\OC(=O)c1cccs1 | 5.04 µM |
| O=[N+]([O-])c1cc(Cl)cc(/C=N\Nc2ccccn2)c1O | 3.33 µM |
| O=C1C=C(c2ccccc2)C(=O)N1Nc1ccccc1 | 1.62 µM |
| COc1ccc(N2C(=O)C(Cl)=C(Oc3cccc(OC)c3)C2=O)cc1 | 4.89 µM |
| Cc1ccc(C(=O)O)cc1N=Cc1cc(Br)cc(Br)c1O | 4.17 µM |
| N#Cc1nccnc1S(=O)(=O)c1cccs1 | 14 µM |
| Cc1ccc(C(c2cc(Cl)c3cccnc3c2O)N2CCN(C)CC2)cc1 (stereo not drawn) | 2.21 µM |
| Cc1cccc(N=Nc2ccc(O)c3ncccc23)c1 | 14 µM |
| CC1=C/C(=N\OS(=O)(=O)c2ccccc2)C(C(C)C)=CC1=O | 5.16 µM |
| O=C1NC(=O)C(=Cc2ccc(-c3ccc(Cl)cc3)o2)C(=O)N1 | 1.41 µM |
| COc1ccc(C(=O)NNC(=S)NC(=O)/C=C/c2cccs2)cc1 | 9.05 µM |
| CCCCS(=O)(=O)/C=C\C=C/S(=O)(=O)CCCC | 2.54 µM |
| O=C1C2C3C=CC(CO)(O3)C2C(=O)N1c1ccc(-c2ccccc2)cc1 (stereo not drawn) | 1.53 µM |
| Cc1ccc(C(=O)Oc2oc(-c3ccco3)nc2C=Nc2ccc(Cl)cc2)cc1 | 3.6 µM |
| CC(=O)c1ccc(N2CCN(C(=O)c3ccc(Br)cc3)CC2)c(F)c1 | 9.91 µM |
| CS(=O)(=O)c1nc(-c2cccs2)cc(C(F)(F)F)n1 | 30.5 µM |
| COc1cccc(/C=C/C(=O)c2c(O)cc(C)oc2=O)c1O | 4.42 µM |
| O=C(NC(=S)NNC(=O)c1cnccn1)c1ccc(Cl)cc1 | 1.75 µM |
| O=C(Oc1c(Cl)cc(Cl)c2cccnc12)c1ccco1 | 2.46 µM |
| CSC1=NS(=O)(=O)c2c(C)nn(C)c2S1 | 27.6 µM |
| CCOC(=O)c1cc(-c2ccc(/C=C3/C(=O)NC(=O)C(C#N)=C3C)o2)ccc1Cl | 1.36 µM |

| SMILES | EC50 |
| --- | --- |
| CCOC(=O)CSC1=NC(=O)/C(=C/c2ccc(Br)cc2)S1 | 15 µM |
| Cc1ccc(C(=O)NNC(=S)NC(=O)COc2ccccc2)cc1 | 8.27 µM |
| O=C(OCn1ncc(Br)c(Br)c1=O)c1c(F)cccc1F | 16.9 µM |
| CC1=NNC(=O)/C1=C\c1cn(-c2ccccc2)nc1-c1ccccc1 | 7.23 µM |
| O=C1C=CC(=O)N1c1cccc(-c2ccccc2)c1 | 0.385 µM |
| CN1CCN(C(c2ccc(C(F)(F)F)cc2)c2ccc3cccnc3c2O)CC1 (stereo not drawn) | 6.72 µM |
| COc1cc(/C=C2\C(=O)N(CCC#N)N=C2C)c(Br)cc1OC(C)C | 4.16 µM |
| O=[N+]([O-])c1cc(F)c2cccnc2c1O | 1.19 µM |
| CC(Oc1ccc(Br)cc1)C(=O)Nc1nc(-c2ccccn2)cs1 (stereo not drawn) | 4 µM |
| O=c1/c(=C/c2cccc3ccccc23)sc2ncnn12 | 9.22 µM |
| Cc1cc(C2CCCCC2)n(O)c(=O)c1 | 5.33 µM |
| COC(=O)/C(=C/c1c[nH]c2ccccc12)[N+](=O)[O-] | 20.7 µM |
| Cc1ccccc1N=Nc1ccc(O)c2ncccc12 | 7.96 µM |
| O=C1C=CC(=O)N1c1ccc(O)cc1 | 4.09 µM |
| CN1CCN(C(=O)c2cc(COc3c(F)cccc3F)on2)CC1c1ccccc1 (stereo not drawn) | 6.66 µM |
| O=C(COc1ccccc1)NNC(=S)NC(=O)c1ccc(Cl)cc1Cl | 17.8 µM |
| COc1ccc(C(c2c(C)[nH]n(C(N)=S)c2=O)C(C#N)C#N)cc1 (stereo not drawn) | 2.08 µM |
| CCCCCCCCC/C(=N\O)c1ccccn1 | 6.13 µM |
| Cc1ccc2nc(Cl)c3nnnn3c2c1 | 3.84 µM |
| Cc1cccc(C)c1NC(=O)C(Cl)C(=O)c1ccccc1 (stereo not drawn) | 1.45 µM |
| Cc1c(Cc2ccccc2)c(NCCN(C)C)n2c(nc3ccccc32)c1C#N | 29.9 µM |
